In PubChem BioAssay (NCI):
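All cell lines were grown in 96-well plates and treated with compound for 48 hours. GI50 is the concentration that inhibits growth by half. TGI is the concentration that stops growth completely.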

Key:
Experiment in all cases: NCI anticancer screen, dose series, 48 h
HCT-116 colon = system: HCT-116 colon
MDA-MB-435 = system: MDA-MB-435
K-562 leukemia = system: K-562 leukemia
NCI-H522 lung = system: NCI-H522 lung
786-0 renal = system: 786-0 renal
NCI-H226 lung = system: NCI-H226 lung
A498 renal = system: A498 renal
UACC-257 melanoma = system: UACC-257 melanoma
KM12 colon = system: KM12 colon
BT-549 breast = system: BT-549 breast

| SMILES | GI50 (HCT-116 colon) | TGI (HCT-116 colon) | GI50 (MDA-MB-435) | TGI (MDA-MB-435) | GI50 (K-562 leukemia) | TGI (K-562 leukemia) | GI50 (NCI-H522 lung) | TGI (NCI-H522 lung) | GI50 (786-0 renal) | TGI (786-0 renal) | GI50 (NCI-H226 lung) | TGI (NCI-H226 lung) | GI50 (A498 renal) | TGI (A498 renal) | GI50 (UACC-257 melanoma) | TGI (UACC-257 melanoma) | GI50 (KM12 colon) | TGI (KM12 colon) | GI50 (BT-549 breast) | TGI (BT-549 breast) |
| --- | --- | --- | --- | --- | --- | --- | --- | --- | --- | --- | --- | --- | --- | --- | --- | --- | --- | --- | --- | --- |
| Cc1ccc(/C=C(\C#N)n2nnc3cc(F)c(F)cc32)cc1 | 1690 nM | 7.79 µM | 360 nM | 17.2 µM | 445 nM | > 100 µM | 291 nM | 1120 nM | 2500 nM | 11.9 µM | 6.45 µM | 63.2 µM | 2510 nM | 7.84 µM | 1630 nM | 3.54 µM | 2650 nM | 15.4 µM | 1950 nM | 6.81 µM |
| COC(=O)c1oc2c(C(=O)/C=C/c3ccc(OC)cc3)c(OCCCN3CCCCC3)ccc2c1C | 1240 nM | 3.02 µM | 1670 nM | 3.68 µM | 2600 nM | – | 1600 nM | 3600 nM | 1490 nM | 3.11 µM | 2.32 µM | 6.38 µM | 1440 nM | 4.54 µM | 1320 nM | 2.88 µM | 1700 nM | 3.66 µM | 2890 nM | 9.11 µM |
| CC1=C(C)C(=O)C(C(C)C2=C(C)C(=O)C(C)=C(C)C2=O)=C(C)C1=O | 10800 nM | 24.8 µM | 39400 nM | > 100 µM | 13200 nM | > 100 µM | 30500 nM | > 100000 nM | 50800 nM | > 100 µM | 58.3 µM | > 100 µM | 25200 nM | > 100 µM | 33500 nM | > 100 µM | 40000 nM | > 100 µM | 45100 nM | > 100 µM |
| COc1ccccc1Nc1nc(-c2cc3cccc(C(F)(F)F)c3oc2=O)cs1 | 80.5 nM | 11.1 µM | 29.7 nM | 0.164 µM | 53.8 nM | > 100 µM | 40.2 nM | 1510 nM | 218 nM | > 42.9 µM | 0.601 µM | 56.3 µM | 36.6 nM | 38.9 µM | 1710 nM | > 100 µM | 72.3 nM | 22.3 µM | 260 nM | – |
| Cn1cccc1-c1cc(-c2ccc(Br)cc2)nc(N)c1C#N | > 100000 nM | > 100 µM | > 100000 nM | > 100 µM | > 100000 nM | > 100 µM | 66000 nM | > 100000 nM | > 100000 nM | > 100 µM | 63.8 µM | > 100 µM | 91800 nM | > 100 µM | > 100000 nM | > 100 µM | > 100000 nM | > 100 µM | 69700 nM | > 100 µM |
